The text below walks through data of article PMC8851638 (ACS Omega, 2022).

The test system of one series is S. aureus biofilm. The series is described as follows: Staphylococcus biofilm mass reduction. It counts as cell-based. The settings on record: at their MIC.
A further series concerns S. epidermidis biofilm. The series is described as follows: Staphylococcus biofilm mass reduction. It counts as cell-based. The settings on record: at their MIC.
Series [1] relates to S. epidermidis (MDR00223). The series is described as follows: MIC and MBC by broth microdilution. The settings on record: Staphylococcus epidermidis, read-out: MIC (mean ± SEM), S. epidermidis; broth microdilution. Type of series: cell-based, Staphylococcus epidermidis.
For series [2], the system named is S. aureus (MDR00231). The series is described as follows: MIC and MBC by broth microdilution. Type of series: cell-based, Staphylococcus aureus. The conditions noted are these: Staphylococcus aureus, read-out: MIC (mean ± SEM), S. aureus; broth microdilution.
The next series deals with B. subtilis (MDR00423). The series is described as follows: MIC and MBC by broth microdilution. Type of series: cell-based. The conditions noted are these: Bacillus subtilis, read-out: MIC (mean ± SEM), B. subtilis; broth microdilution.
The test system of series [3] is E. coli (MDR00501). The series is described as follows: MIC and MBC by broth microdilution. The settings on record: Escherichia coli, read-out: MIC (mean ± SEM), E. coli; broth microdilution. Type of series: cell-based. (Dilution methods test growth across graded concentrations, often in twofold steps.)
The subject of another series is RBCs. The series is described as follows: Hemolytic assay. Type of series: cell-based. The conditions noted are these: human RBCs; compounds 1.0 mg/mL; Triton X-100 0.1% v/v; 37 °C, 35 min.
Series [4] relates to S. epidermidis (MDR00223). The series is described as follows: Agar well-diffusion antimicrobial sensitivity assay. Type of series: cell-based, Staphylococcus epidermidis. The settings on record: Staphylococcus epidermidis, read-out: Inhibition Zone (IZ).
For series [5], the system named is C. albicans100 (MDR00100). The series is described as above. It counts as cell-based, Candida albicans. The conditions noted are these: Candida albicans, read-out: Inhibition Zone (IZ).
In series [6] the test system is E. coli (MDR00501). The series is described as above. The settings on record: Escherichia coli, read-out: Inhibition Zone (IZ). It counts as cell-based.
Series [7] relates to S. aureus (MDR00231). Described as above. Type of series: cell-based, Staphylococcus aureus. The conditions noted are these: Staphylococcus aureus, read-out: Inhibition Zone (IZ).
For series [8], the system named is C. albicans200 (MDR00200). The series is described as above. Type of series: cell-based, Candida albicans. The conditions noted are these: Candida albicans, read-out: Inhibition Zone (IZ).

≈ marks a conversion by molar mass, not a printed value. Where “and” joins values, the source holds several entries; their conditions need not be identical. Identical values can stand only once.

One may read the MIC as the least concentration at which growth counts as inhibited. In the case of `O=C(O)c1cn(C2CC2)c2cc(N3CCNCC3)c(F)cc2c1=O` [CIP, Ciprofloxacin, reference compound], the “reduction of biofilm formation” value with S. aureus biofilm was determined as 43.2%; with S. epidermidis biofilm it was 38%. Moreover, the MIC in series [1] was found to be 0.47 ± 0.2 µg/mL (≈ 1.42 µM); in the series on S. aureus (MDR00231) [2], 0.48 ± 0.1 µg/mL (≈ 1.45 µM); in the series on B. subtilis (MDR00423), 0.48 ± 0.3 µg/mL (≈ 1.45 µM); in the series on E. coli (MDR00501) [3], 0.46 ± 0.4 µg/mL (≈ 1.39 µM). Moreover, the “%lysis of RBCs” value with RBCs was 16.2% and 16.2 ± 0.5%.
`Cc1ccc(-c2nn(-c3ccccc3)cc2C=c2sc(=CC#N)[nH]c2=O)cc1` [Compound 3b, 2-(4-Oxo-5-((1-phenyl-3-(p-tolyl)-1H-pyrazol-4-yl)methylene)thiazolidin-2-ylidene)acetonitrile]: the zone of inhibition at 100000 µg/mL in series [4] is 17 ± 0.21 mm; in series [5] it was 13 ± 0.22 mm; with E. coli (MDR00501) [6], 16 ± 0.34 mm; with S. aureus (MDR00231) [7] it was 15 ± 0.63 mm; in [8], 15 ± 0.8 mm.
Consider `CCOC(=O)C=c1[nH]c(=O)c(=Cc2cn(-c3ccccc3)nc2-c2ccccc2)s1` [Compound 3c, Ethyl 2-(5-((1,3-Diphenyl-1H-pyrazol-4-yl)methylene)-4-oxothiazolidin-2-ylidene)acetate], for which the zone of inhibition at 100000 µg/mL in series [4] came out at 15 ± 0.7 mm; in series [5], 15 ± 0.45 mm; in the series with E. coli (MDR00501) [6], 18 ± 0.33 mm; in the series with S. aureus (MDR00231) [7], 13 ± 0.46 mm; in series [8], 14 ± 0.3 mm.
For `CCOC(=O)C=c1[nH]c(=O)c(=Cc2cn(-c3ccccc3)nc2-c2ccc(C)cc2)s1` [Compound 3d, Ethyl-2-(4-oxo-5-((1-phenyl-3-(p-tolyl)-1H-pyrazol-4-yl)methylene)thiazolidin-2-ylidene)-acetate], in that order: 16 ± 0.1 mm, 13 ± 0.6 mm, 15 ± 0.67 mm, 15 ± 0.78 mm and 16 ± 0.22 mm.
As to `Cc1ccc(-c2nn(-c3ccccc3)cc2C=C(C#N)C2=NC(=O)CS2)cc1` [Compound 4b, 2-(4-Oxo-4,5-dihydrothiazol-2-yl)-3-(1-phenyl-3-(p-tolyl)-1H-pyrazol-4-yl)acrylonitrile], the zone of inhibition at 100000 µg/mL in series [4] was 19 ± 0.31 mm; in series [5] it was 22 ± 0.1 mm; in the series with E. coli (MDR00501) [6], 22 ± 0.6 mm; with S. aureus (MDR00231) [7], 20 ± 0.2 mm; in series [8], 23 ± 0.22 mm.
Taken in the same sequence, the figures for `N#CC(=Cc1ccc(Cl)cc1)C1=NC(=O)C(=Cc2cn(-c3ccccc3)nc2-c2ccccc2)S1` [Compound 5b, 3-(4-Chlorophenyl)-2-(5-((1,3-diphenyl-1H-pyrazol-4-yl)methylene)-4-oxo-4,5-dihydrothiazol-2-yl)acrylonitrile] were 21 ± 0.1 mm, 23 ± 0.26 mm, 22 ± 0.56 mm, 24 ± 0.2 mm and 25 ± 0.77 mm.
Turning to `N#CC(=Cc1ccc([N+](=O)[O-])cc1)C1=NC(=O)C(=Cc2cn(-c3ccccc3)nc2-c2ccccc2)S1` [Compound 5c, 2-(5-((1,3-Diphenyl-1H-pyrazol-4-yl)methylene)-4-oxo-4,5-dihydrothiazol-2-yl)-3-(4-nitrophenyl)acrylonitrile], the zone of inhibition at 100000 µg/mL in series [4] is 24 ± 0.28 mm; in [5], 21 ± 0.52 mm; with E. coli (MDR00501) [6], 21 ± 0.45 mm; with S. aureus (MDR00231) [7], 22 ± 0.66 mm; in series [8], 24 ± 0.13 mm.
As to `CCOC(=O)c1c(N)csc1-c1cn(-c2ccccc2)nc1-c1ccccc1` [Compound 7a, Ethyl 4-Amino-2-(1,3-diphenyl-1H-pyrazol-4-yl)thiophene-3-carboxylate], the zone of inhibition at 100000 µg/mL in [4] turned out to be 21 ± 0.12 mm; in [5], 21 ± 0.32 mm; with E. coli (MDR00501) [6] it was 22 ± 0.41 mm; in the series on S. aureus (MDR00231) [7], 24 ± 0.4 mm; in series [8] it was 25 ± 0.33 mm.
As for `Cc1c(NN=C2SC(CC#N)=NC2=O)c(=O)n(-c2ccccc2)n1C` [Compound 14, 2-(5-(2-(1,5-Dimethyl-3-oxo-2-phenyl-2,3-dihydro-1H-pyrazol-4-yl)hydrazono)-4-oxo-4,5-dihydrothiazol-2-yl)acetonitrile], the zone of inhibition at 100000 µg/mL in [4] turned out to be 19 ± 0.23 mm; in series [5], 18 ± 0.66 mm; with E. coli (MDR00501) [6] it was 17 ± 0.35 mm; with S. aureus (MDR00231) [7], 16 ± 0.21 mm; in series [8] it was 20 ± 0.88 mm.
As to `Cc1c(NN=C2SC(C(C#N)=Cc3ccccc3)=NC2=O)c(=O)n(-c2ccccc2)n1C` [Compound 15a, 2-(5-(2-(1,5-Dimethyl-3-oxo-2-phenyl-2,3-dihydro-1H-pyrazol-4-yl)hydrazono)-4-oxo-4,5-dihydrothiazol-2-yl)-3-phenylacrylonitrile], the zone of inhibition at 100000 µg/mL in [4] was 18 ± 0.56 mm; in [5], 16 ± 0.44 mm; with E. coli (MDR00501) [6], 15 ± 0.77 mm; in the series on S. aureus (MDR00231) [7] it was 16 ± 0.59 mm; in series [8], 20 ± 0.58 mm.
In the case of `Cc1c(NN=C2SC(C(C#N)=Cc3ccc(Cl)cc3)=NC2=O)c(=O)n(-c2ccccc2)n1C` [Compound 15b, 3-(4-Chlorophenyl)-2-(5-(2-(1,5-dimethyl-3-oxo-2-phenyl-2,3-dihydro-1H-pyrazol-4-yl)hydrazono)-4-oxo-4,5-dihydrothiazol-2-yl)acrylonitrile], the zone of inhibition at 100000 µg/mL was 16 ± 0.25 mm in series [4]; 16 ± 0.34 mm in series [5]; 16 ± 0.85 mm in the series on E. coli (MDR00501) [6]; 18 ± 0.44 mm in the series on S. aureus (MDR00231) [7]; 18 ± 0.76 mm in series [8].
With Triton X-100 [reference compound], the “%lysis of RBCs” value with RBCs is 95.12% and 95.12 ± 0.721%.
